Series [1] can be described thus: Stability in 50% human plasma at 100 uM measured for 24 hrs by LCMS analysis. It is filed as ADME, cell-free.
In series [2] the target is T1, Butyrophilin subfamily 3 member A1 (Homo sapiens, UniProt O00481). Kind of series: Activation of butyrophilin 3A1 in human K562 cells assessed as interferon-gamma production pretreated for 15 mins followed by HMBPP-treated Vgamma9Vdelta2 T cells addition and measured after 20 hrs by ELISA. The class given is cell-based.
In series [3] the target is T1, Butyrophilin subfamily 3 member A1. Kind of series: Activation of butyrophilin 3A1 in human K562 cells assessed as interferon-gamma production pretreated for 60 mins followed by HMBPP-treated Vgamma9Vdelta2 T cells addition and measured after 20 hrs by ELISA. The class given is cell-based.
The target is the same in series [4]. Kind of series: Activation of butyrophilin 3A1 in human K562 cells assessed as interferon-gamma production pretreated for 240 mins followed by HMBPP-treated Vgamma9Vdelta2 T cells addition and measured after 20 hrs by ELISA. The class given is cell-based. (An ELISA detects its analyte on a solid surface through an enzyme-linked reagent.)
Series [5] concerns PBMC. Nature of the series: Activation of cell proliferation in human PBMC incubated for 72 hrs by Cell Quanti Blue reagent based assay. The class given is functional.

Bounds are passed on as bounds.

T1 sequence (O00481 whole entry): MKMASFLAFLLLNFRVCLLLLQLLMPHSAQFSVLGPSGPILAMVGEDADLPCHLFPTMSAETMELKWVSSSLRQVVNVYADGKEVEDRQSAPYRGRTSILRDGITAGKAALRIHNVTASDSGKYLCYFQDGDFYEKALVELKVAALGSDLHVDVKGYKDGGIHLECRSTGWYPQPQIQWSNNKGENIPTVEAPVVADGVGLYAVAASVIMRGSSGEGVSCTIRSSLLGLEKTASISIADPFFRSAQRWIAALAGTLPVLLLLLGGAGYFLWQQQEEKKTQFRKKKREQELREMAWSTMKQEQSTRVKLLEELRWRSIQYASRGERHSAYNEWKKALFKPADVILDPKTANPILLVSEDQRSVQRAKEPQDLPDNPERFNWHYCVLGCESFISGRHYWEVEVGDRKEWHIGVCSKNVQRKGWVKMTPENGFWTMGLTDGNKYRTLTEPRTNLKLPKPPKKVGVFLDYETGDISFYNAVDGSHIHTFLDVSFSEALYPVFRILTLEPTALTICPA

Broadly, the EC50 is the concentration giving half of the maximal effect. Take `CCOC(=O)[C@@H](C)N[P@@](=O)(CC/C=C(\C)CO)Oc1ccccc1`: in series [1], the Stability result is “Stable”. Also, the EC50 in series [2] is 4.6 µM; in series [3] it was 1.5 µM; in series [4] it was 0.43 µM.

For the compound `CCOC(=O)[C@H](C)N[P@](=O)(CC/C=C(\C)CO)Oc1ccccc1`, in series [1], the Stability entry was “Stable”. The EC50 in series [2] was 0.46 µM; in series [3], 0.16 µM; in series [4] it was 0.043 µM; in series [5], 0.00043 µM.

For the compound `C/C(=C\CCP(=O)(O)OP(=O)(O)O)CO`, the concentration for a half-maximal effect (EC50) was 7.6 µM in series [2], 1.2 µM in series [3] and 0.28 µM in series [4].

For `CCOC(=O)CNP(=O)(CC/C=C(\C)CO)Oc1ccccc1` (racemic), the 50% effective concentration (EC50) amounted to 1.5 µM in series [2], 0.23 µM in series [3] and 0.051 µM in series [4].

As for `CCOC(=O)[C@@H](C)N[P@](=O)(CC/C=C(\C)CO)Oc1ccccc1`, in series [1], the Stability result was “Stable”. Further, the EC50 was found to be 6 µM in series [2], 2 µM in series [3] and 0.52 µM in series [4].

As to `C/C(=C\CCP(=O)(O)O)CO`, in series [5], a half-maximal effect (EC50) was put at 4 µM.

On to `C/C(=C\COP(=O)(O)OP(=O)(O)O)CO`, for which, in series [5], the response was half-maximal at 0.0005 µM (EC50).

Take `CCOC(=O)[C@H](C)N[P@@](=O)(CC/C=C(\C)CO)Oc1ccccc1`: the Stability entry in series [1] is “Stable”. In addition, the half-maximal effective concentration (EC50) in series [2] amounted to 0.2 µM; in series [3] it was 0.079 µM; in series [4] it was 0.021 µM; in series [5], 0.00028 µM.

Turning to `O=P(O)(O)C(O)(Cn1ccnc1)P(=O)(O)O` [ZOLEDRONIC ACID], the EC50 is over 100 µM in series [2], 79 µM in series [3] and 23 µM in series [4].

The compound `C/C(=C\CCP(=O)(OCOC(=O)C(C)(C)C)Oc1cccc2ccccc12)CO` (configuration not stated) gave an EC50 in series [5] of 0.00079 µM.

In the case of `C/C(=C\CCP(=O)(OCOC(=O)C(C)(C)C)Oc1ccccc1)CO` (configuration not stated), in series [5], the EC50 was found to be 0.014 µM.

Regarding `C/C(=C\CCP(=O)(OCOC(=O)C(C)(C)C)OCOC(=O)C(C)(C)C)CO`, in series [1], the Stability result is “Stable”.

The values are drawn from ChEMBL document CHEMBL4304812, “Synthesis and Bioactivity of the Alanyl Phosphonamidate Stereoisomers Derived from a Butyrophilin Ligand” (ACS Med Chem Lett, 2019).
